Results from US7244727B2, “Fused bicyclic nitrogen-containing heterocycles” (Japan Tobacco Inc., priority 2002, dated 2007).

How the values were obtained:
human DGAT1 = target: T1, human DGAT1 (Homo sapiens, UniProt O75907); assay: DGAT Scintillation Proximity Assay (SPA) with membranes of insect cells expressing human flagtag DGAT1; assay type: biochemical; conditions: read-out: hDGAT1 IC50
T1 construct: made in house; host or cells: insect cells (sf9, sf21 or High Five) infected with baculovirus; total cell membranes
T1 sequence (O75907 1-488): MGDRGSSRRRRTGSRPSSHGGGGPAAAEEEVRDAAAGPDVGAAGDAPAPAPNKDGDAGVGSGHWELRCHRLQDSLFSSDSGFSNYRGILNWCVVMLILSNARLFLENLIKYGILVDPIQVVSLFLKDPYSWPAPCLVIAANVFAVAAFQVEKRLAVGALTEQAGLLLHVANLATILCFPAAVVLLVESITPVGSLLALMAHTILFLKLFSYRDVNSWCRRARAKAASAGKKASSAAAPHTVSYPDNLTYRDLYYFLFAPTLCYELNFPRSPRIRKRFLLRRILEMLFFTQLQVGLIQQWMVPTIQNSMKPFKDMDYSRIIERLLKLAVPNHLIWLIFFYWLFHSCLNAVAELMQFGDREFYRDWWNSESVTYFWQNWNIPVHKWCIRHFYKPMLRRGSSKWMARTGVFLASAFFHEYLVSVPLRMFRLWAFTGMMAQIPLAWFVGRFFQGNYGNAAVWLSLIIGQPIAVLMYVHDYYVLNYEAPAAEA
In short: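 Membranes (0.2 μg/well) from insect cells expressing human flag-tagged DGAT1 incubated with 10 μM compound and 200 μM dioleoyl glycerol substrate; mercuric chloride as inhibition control. Reaction stopped with WGA SPA beads in mercuric chloride, overnight bead coupling, then scintillation proximity signal read.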

| SMILES | melting point | IC50 (human DGAT1) |
| --- | --- | --- |
| Cc1nc(N)c2c(n1)OCC(c1ccc(Br)cc1)N2 (stereo not shown) [Example 1-34] | 232 to 233 °C | > 100 nM |
| CC1(C)Oc2ncnc(N)c2N=C1c1ccc([C@H]2CC[C@H](CCN3CCC(CCO)CC3)CC2)cc1 [Example 2-87] | 221 to 222 °C | > 100 nM |
| CC1(C)Oc2ncnc(N)c2NC1c1ccc(Cl)cc1 (stereo not shown) [Example 2-19] | > 230 °C | > 100 nM |
| Nc1ncnc2c1N=C(c1ccc(-c3ccccc3)cc1)CO2 [Example 1-11] | > 250 °C | > 100 nM |
| Nc1nc(O)nc2c1N=C(c1ccc(Br)cc1)CO2 [Example 1-29] | > 220 °C | > 100 nM |
| CC1(C)Oc2ncnc(N)c2N=C1c1ccc([C@H]2CC[C@H](CCN3CCCCC3)CC2)cc1 [Example 2-82] | 209 to 210 °C | > 100 nM |
| CCCc1ccc(C2=Nc3c(N)ncnc3OC2)cc1 [Example 1-20] | 189 to 192 °C | > 100 nM |
| CC1(C)Oc2ncnc(N)c2N=C1c1ccc([C@H]2CC[C@H](CCN3CCCC3)CC2)cc1 [Example 2-83] | 142 to 143 °C | > 100 nM |
| CC1(C)Oc2ncnc(N)c2N=C1c1ccc([C@H]2CC[C@H](CCNC(=O)[C@@H]3CCCN3)CC2)cc1 [Example 2-182] | 167 to 169 °C | 10 to 100 nM |
| Cc1nc(N)c2c(n1)OC(C)(C)C(c1ccc([C@H]3CC[C@H](CSC(C)(C)C(=O)O)CC3)cc1)=N2 [Example 2-260] | 235 to 239 °C | 10 to 100 nM |
| CCOc1cc(C2=Nc3c(N)nc(C)nc3OC2(C)C)ccc1[C@H]1CC[C@H](CC(=O)O)CC1 [Example 6-8] | 224 to 225 °C | 10 to 100 nM |
| CN(C)c1ccc(-c2ccc(C3=Nc4c(N)ncnc4OC3(C)C)cc2)cc1 [Example 2-30] | 210 to 211 °C | > 100 nM |
| CC1(C)Oc2ncnc(N)c2N=C1c1ccc([C@H]2CC[C@H](C(=O)NCCO)CC2)cc1 [Example 2-203] | 235 to 237 °C | 10 to 100 nM |
| Cc1nc(N)c2c(n1)OC(C)(C)C(c1ccc(C3CC(CCC(=O)O)C3)cc1)=N2 (stereo not shown) [Example 2-149] | 237 to 238 °C | 10 to 100 nM |
| CC1(C)Oc2ncnc(N)c2N=C1c1ccc([C@H]2CC[C@H](C(=O)N3CCCCC3)CC2)cc1 [Example 2-236] | 220 to 224 °C | 10 to 100 nM |
| Nc1ncnc2c1N=C(c1ccccn1)CO2 [Example 1-16] | 215 °C | > 100 nM |
| CC1(C)Oc2ncnc(N)c2N=C1c1cccc(OCC2CCCCC2)c1 [Example 5-3] | 151 to 152 °C | > 100 nM |
| Nc1ncnc2c1N=C(c1ccc(Cl)c(Cl)c1)CO2 [Example 1-27] | > 220 °C | > 100 nM |

| SMILES | melting point | IC50 (human DGAT1) |
| --- | --- | --- |
| CCOC(=O)C=C1CCC(c2ccc(C3=Nc4c(N)ncnc4OC3(C)C)cc2)CC1 (stereo not shown) [Example 2-39] | 207 to 208 °C | > 100 nM |
| Cc1nc(N)c2c(n1)OC(C)(C)C(c1ccc([C@H]3CC[C@H](CC(=O)NCC(N)=O)CC3)cc1)=N2 [Example 2-142] | 142 to 144 °C | 10 to 100 nM |
| CCc1ccc(C2=Nc3c(N)ncnc3OC2)cc1 [Example 1-19] | 191 to 193 °C | > 100 nM |
| CC1(C)Oc2ncnc(N)c2N=C1c1ccc([C@H]2CC[C@H](C(=O)N3C[C@@H](O)[C@@H](O)C3)CC2)cc1 [Example 2-250] | 220 to 240 °C | 10 to 100 nM |
| CCNC(=O)C=C1CCC(c2ccc(C3=Nc4c(N)ncnc4OC3(C)C)cc2)CC1 (stereo not shown) [Example 2-47] | 229 to 230 °C | 10 to 100 nM |
| CC1(C)Oc2ncnc(N)c2N=C1c1ccc([C@H]2CC[C@H](SCC(=O)O)CC2)cc1 [Example 2-112] | > 250 °C | 10 to 100 nM |
| CC(C)(NC(=O)C[C@H]1CC[C@H](c2ccc(C3Nc4c(N)ncnc4OC3(C)C)cc2)CC1)C(=O)O (stereo partly shown) [Example 2-73] | > 250 °C | 10 to 100 nM |
| CC1(C)Oc2ncnc(N)c2N=C1c1ccc(C2CCC(=CC(=O)NCc3ccccc3)CC2)cc1 (stereo not shown) [Example 2-45] | 142 to 144 °C | 10 to 100 nM |
| CC1(C)Oc2ncnc(N)c2N=C1c1ccc(N2CCC(C(=O)O)CC2)cc1 [Example 4-4] | > 240 °C | 10 to 100 nM |
| CN(C)c1nc(N)c2c(n1)OCC(c1ccc(Br)cc1)=N2 [Example 1-30] | > 220 °C | > 100 nM |
| CC1(C)Oc2ncnc(N)c2N=C1c1ccc([C@H]2CC[C@H](CNS(C)(=O)=O)CC2)cc1 [Example 2-58] | 251 to 252 °C | 10 to 100 nM |
| Nc1ncnc2c1N=C(c1ccncc1)CO2 [Example 1-18] | > 220 °C | > 100 nM |
| Cc1nc(N)c2c(n1)OC(C)(C)C(c1ccc([C@H]3CC[C@H](CNC(=O)CCO)CC3)cc1)=N2 [Example 2-140] | 223 to 224 °C | 10 to 100 nM |
| CC1(C)Oc2ncnc(N)c2NC1c1ccc([C@H]2CC[C@H](CCC(=O)O)CC2)cc1 (stereo partly shown) [Example 2-6] | > 250 °C | 10 to 100 nM |
| CC(C)C(=O)N1CCN(C[C@H]2CC[C@H](c3ccc(C4=Nc5c(N)ncnc5OC4(C)C)cc3)CC2)CC1 [Example 2-241] | 120 to 126 °C | 10 to 100 nM |
| CC1(C)Oc2ncnc(N)c2N=C1c1ccc([C@H]2CC[C@H](C(=O)N3CCC(O)CC3)CC2)cc1 [Example 2-237] | 250 to 252 °C | 10 to 100 nM |
| CCn1c(C[C@H]2CC[C@H](c3ccc(C4=Nc5c(N)nc(C)nc5OC4(C)C)cc3)CC2)n[nH]c1=O [Example 2-156] | > 250 °C | 10 to 100 nM |

Next, values leading:

| melting point | IC50 (human DGAT1) | SMILES |
| --- | --- | --- |
| 213 to 214 °C | 10 to 100 nM | CC1(C)Oc2ncnc(N)c2N=C1c1ccc([C@H]2CC[C@H](C(=O)CO)CC2)cc1 [Example 2-254] |
| 207 to 208 °C | 10 to 100 nM | CC(C)(O)C(=O)N1CCN(C[C@H]2CC[C@H](c3ccc(C4=Nc5c(N)ncnc5OC4(C)C)cc3)CC2)CC1 [Example 2-248] |
| > 250 °C | 10 to 100 nM | CC1(C)Oc2ncnc(N)c2N=C1c1ccc([C@H]2CC[C@H](C(=O)NCC(=O)O)CC2)cc1 [Example 2-205] |
| 186 to 188 °C | 10 to 100 nM | CN(CC[C@H]1CC[C@H](c2ccc(C3=Nc4c(N)ncnc4OC3(C)C)cc2)CC1)C(=O)CO [Example 2-104] |
| > 230 °C | 10 to 100 nM | CC1(C)Oc2ncnc(N)c2N=C1c1ccc([C@H]2CC[C@H](Cc3nc4ccccc4[nH]3)CC2)cc1 [Example 2-109] |
| 171 to 172 °C | 10 to 100 nM | CC(C)(C)OC(=O)N1CCN(C[C@H]2CC[C@H](c3ccc(C4=Nc5c(N)ncnc5OC4(C)C)cc3)CC2)CC1 [Example 2-232] |
| 230 to 231 °C | 10 to 100 nM | Cc1nc(N)c2c(n1)OC(C)(C)C(c1ccc([C@H]3CC[C@H](CCC(=O)N4C[C@@H](O)[C@@H](O)C4)CC3)cc1)=N2 [Example 2-194] |
| > 250 °C | < 10 nM | Cc1nc(N)c2c(n1)OC(C)(C)C(c1ccc([C@H]3CC[C@H](CCC(=O)NS(C)(=O)=O)CC3)cc1)=N2 [Example 2-192] |
| 185 to 186 °C | 10 to 100 nM | Cc1nc(N)c2c(n1)OC(C)(C)C(c1ccc([C@H]3CC[C@H](CCNC(=O)CO)CC3)cc1)=N2 [Example 2-160] |
| 234 to 235 °C | 10 to 100 nM | CC1(C)Oc2ncnc(N)c2N=C1c1ccc([C@@H]2CCC[C@H](CC(=O)O)C2)cc1 [Example 2-126] |
| 205 to 209 °C | 10 to 100 nM | Cc1nc(N)c2c(n1)OC(C)(C)C(c1ccc([C@H]3CC[C@H](CNC(=O)OCC(C)C)CC3)c(Cl)c1)=N2 [Example 6-14] |
| 219 to 221 °C | 10 to 100 nM | Cc1nc(N)c2c(n1)OC(C)(C)C(c1ccc([C@H]3CC[C@H](CNC(=O)C(O)C(C)(C)CO)CC3)cc1)=N2 (stereo partly shown) [Example 2-163] |
| 131 to 133 °C | 10 to 100 nM | CC(C)(CO)NC(=O)C[C@H]1CC[C@H](c2ccc(C3=Nc4c(N)ncnc4OC3(C)C)cc2)CC1 [Example 2-98] |
| 236 to 237 °C | 10 to 100 nM | CC1(C)Oc2nc(C(F)(F)F)nc(N)c2N=C1c1ccc([C@H]2CC[C@H](Cc3nc(=O)o[nH]3)CC2)c(Cl)c1 [Example 6-25] |
| > 250 °C | 10 to 100 nM | Cc1nc(N)c2c(n1)OC(C)(C)C(c1ccc(C3CC(CC(=O)O)C3)cc1)=N2 (stereo not shown) [Example 2-146] |
| 159 to 164 °C | 10 to 100 nM | CC1(C)Oc2ncnc(N)c2N=C1c1ccc([C@H]2CC[C@H](CN3CCC(C(N)=O)CC3)CC2)cc1 [Example 2-251] |
| 196 to 198 °C | 10 to 100 nM | CC1(C)Oc2ncnc(N)c2N=C1c1ccc([C@H]2CC[C@H](CCNC(=O)CO)CC2)cc1 [Example 2-176] |
| > 250 °C | < 10 nM | Cc1nc(N)c2c(n1)OC(C)(C)C(c1ccc([C@H]3CC[C@H](c4nn[nH]n4)CC3)cc1)=N2 [Example 2-263] |
